Here are results for one compound from patent US9353116B2, “Methods and compositions for kinase inhibition” (THE REGENTS OF THE UNIVERSITY OF CALIFORNIA, priority 2010, dated 2016).

Structures are written as SMILES. Where two headings read alike, the source gives them in different places.

Test [1] deals with T1, T338C c-Src (Gallus gallus (Chicken), UniProt P00523, T338C). Kind of test: Full protein mass spectrometry of covalent labeling. Type of test: binding. The conditions noted are these: two equivalents of inhibitor. On the procedure:
Protein labeling conditions: Kinase labeling reactions were performed by incubating 30 μL quantities of c-Src variants (in 50 mM Tris pH 8, 100 mM NaCl, 1 mM DTT, 5% glycerol) with two equivalents of inhibitor in DMSO (final DMSO concentration=2.4%). The covalent labeling reaction was quenched by removing 4 μL and adding it to 31 μL of 0.1% formic acid. The sample was then analyzed by ES1-oa-TOF mass spectrometry.

Test [2] concerns the target T1, T338C c-Src. Kind of test: In vitro kinase assay, T338C c-Src (c-Src-ES1). Type of test: biochemical. The method, then:
In vitro kinase assays for c-Src variants were performed in 50 mM Tris (pH 8.0), 10 mM MgCl2 and 1 mg/mL BSA. When obtaining kinetic parameters (kcat, Km) kinase and peptide substrate (IYGEFKKK) (SEQ ID NO:51) concentrations were 2 nM and 500 μM, respectively, while ATP concentrations ranged from 2000-0.655 μM. Addition of nonradioactive ATP supplemented with ^32P ATP (3,000 Ci/mmol, NEN) was used to initiate kinase reactions. Time points were selected such that product formation never exceeded 10%. Reactions were quenched by spotting 3 μL quantities onto phosphocellulose sheets (P81, Whatman). Afterwards, the sheets were washed 3×5 minutes in 0.5% phosphoric acid and dried. Radioactivity was measured by phosphorimaging and recorded on a Typhoon fluorescence imager (Molecular Dynamics). Data were plotted as rate (min^−1) versus ATP concentration and fitted to the Michaelis-Menten equation, v=[(kcat)[S]]/(Km+[S]), using Kaleidagraph software (Synergy) to extract kinetic parameters. When obtaining IC50 values for the inhibitors, 2% (v/v) DMSO was included in kinase reactions. In these cases ATP, peptide, and enzyme concentrations were 15 nM, 100 μM and 5 nM, respectively, while inhibitor concentrations ranged from 10,000-0.610 nM. […] The data was fitted to a sigmoidal dose-response curve using Prism 4.0c (GraphPad Software) to obtain IC50 values.

For test [3], the target named is v-Src-ES1 (I338C) (Rous sarcoma virus (strain H-19), UniProt P25020, I338C). Kind of test: Inhibition assay with v-Src-ES1 transformed NIH-3T3 cells. The format is cell-based. The method, then:
Curr Biol 8(5):257-266. Cells were grown to 60-90% confluence in DMEM supplemented with fetal bovine serum (10%), penicillin ‘G’ (100 units/ml) and streptomycin sulfate (100 μg/ml) (PenStrep, UCSF Cell Culture Facility) prior to treatment with kinase inhibitors dissolved in DMSO (final DMSO concentration, 0.5%). Following 1 hour of incubation with inhibitors at 37° C., cells were harvested in lysis buffer (50 mM Tris (pH 7.4), 300 mM NaCl, 5 mM EDTA, 1% triton, 0.02% NaN3, 1× complete mini protease inhibitor (Roche), 1 mM PMSF, 1×PHOS-stop (Roche), 0.02 μM microcystin, 2 mM sodium orthovanadate), normalized for concentration and analyzed by Western blot for global phosphotyrosine levels (4G10, Millipore, 1:1000). Levels of β-actin (β-actin Antibody, Cell Signaling, 1:1000) and v-Src (Src 32G6 rabbit mAb, Cell Signaling, 1:1000) were ascertained by Western blot.
I338C (v-Src-ES1, SEQ ID NO:48), I338T (SEQ ID NO:49), I338G (v-Src-AS1, SEQ ID NO:50) and WT v-Src-transformed NIH-3T3 cell lines were generated. Unlike c-Src, v-Src is constitutively active and harbors an isoleucine gatekeeper. The I338T v-Src variant was generated for consistency with the in vitro c-Src studies. For each cell line, global levels of phosphotyrosine were analyzed (FIG. 7). […]

`CC(C)n1nc(Cc2cccc(C(=O)CF)c2)c2c(N)ncnc21` [Compound 13, 1-(3-((4-amino-1-isopropyl-1H-pyrazolo[3,4-d]pyrimidin-3-yl)methyl)phenyl)-2-fluoroethanone]: in test [1], the “covalent labeling / adduct formation by full protein mass spectrometry” value is listed as “not observed”. Moreover, the “time dependence of inhibition of T338C c-Src” value in test [2] is reported as “time-dependent manner”. For the same compound, the IC50 (commonly the concentration needed to halve the response being measured) in test [2] (ES1 = T338C, read-out: c-Src variant IC50 (nM) ES1) came to 338 nM; in test [2] (T338C c-Src IC50 (nM), preincubation time 2 min), 1280 nM; in test [2] (T338C c-Src IC50 (nM), preincubation time 20 min), 318 nM; in test [2] (T338C c-Src IC50 (nM), preincubation time 40 min) it was 136 nM; in test [2] (inhibitor preincubated with Src ten minutes prior to addition of ATP, read-out: T338C c-Src IC50), 338 nM. For the same compound, the “fold more potent than the corresponding ketone 14” value in test [2] (T338C c-Src) was greater than 13 fold. Moreover, the “inhibition of v-Src-ES1 in cells (global phosphotyrosine levels)” value in test [3] is “inhibited v-Src-ES1 in a dose-dependent manner”.
